Source: patent publication US20230123140A1, “DOSE TREATMENTS OF TAUOPATHIES” (AC Immune SA, priority 2020, published 2023)

Legend:
[1] = system: Tg4510 transgenic mouse model; assay: Studies of ACI-3024 in the Tg4510 transgenic mouse model (CSF target level); format: in vivo; conditions: derived from studies in Tg4510 transgenic mouse model
Experimental: The present invention is directed to a compound ACI-3024 for use in the treatment, prevention or alleviation of a disorder or an abnormality associated with Tau protein aggregates or a tauopathy comprising administering said compound at an amount up to or equal to 1500 mg/day to a human subject in need thereof wherein the compound ACI-3024 is constantly present in the human subject CSF at a concentration above or equal to 30 nM level at predose, preferably above or equal to 90 nM level at predose. The predefined predose level of ACI-3024 of 30 nM is derived from studies of ACI-3024 in the Tg4510 transgenic mouse model which reflects the clinical manifestation of tauopathies and determines the minimum concentration of the compound in the CSF necessary to achieve clinical efficacy before another dose of the same compound is given (ie a threshold value below which efficacy would be lost). Preferably, the compound ACI-3024 is present in the human subject CSF at a concentration above or equal to 30 nM, preferably above or equal to 90 nM, during the treatment.

[2] = system: Central Nervous System function; assay: Central nervous system evaluation in mice (functional observation battery); format: in vivo, mouse; conditions: single oral administration 100, 300 or 750 mg/kg, female CD1 mice
Experimental: This study was conducted to evaluate the potential modifications of central nervous system (CNS) activity by ACI-3024 when given as single dose to CD1 mice.
Doses of 100, 300 and 750 mg/kg were administered by oral gavage to 8 females/group. The control animals were administered vehicle. The dose volume was 10 mL/kg for all groups. Approximately 2, 4, 6 and 24 hours after the treatment, each mouse was subjected to a functional observation battery in order to investigate possible treatment-induced effects on the CNS or in any of its domains: neurologic, autonomic and behavioral.

[3] = system: Gottingen mini-pig; assay: in vivo; conditions: minipig
Experimental: (§1) This study was conducted to evaluate the potential toxicity of ACI-3024 in a non-rodent species when given daily to Gottingen mini-pig for 4 weeks, followed by a 2-week recovery period.
(§2) Doses tested, 50, 150 and 450 mg/kg were given by p.o. to 3 animals/sex/group daily. The control animals were administered vehicle. The dose volume was 5 mL/kg for all groups.
(§3) Clinical signs, body weights, food consumption, electrocardiography, ophthalmology and clinical pathology were evaluated. For each sex/group, a complete necropsy was conducted on 3 animals at the end of the dosing period and on 2 (only control and high dose groups) surviving animals at end of the recovery period.

[4] = in vivo; set-up: species or system mini-pig; conditions: both sexes, Gottingen, minipig, po
Experimental: as §1, §2, §3

[5] = 4-week toxicity study in mice followed by 2 weeks of recovery; format: in vivo, mouse; conditions: both sexes, CD1, mouse, in vivo, po
Experimental: (§4) This study was conducted to evaluate the potential toxicity of ACI-3024 when given daily by oral gavage to CD1 mice for 4 weeks, followed by a 2-week recovery period. Doses of 100, 300 and 1000 mg/kg were administered by p.o. to 10 animals/sex/group daily. The control animals were administered vehicle. The dose volume was 10 mL/kg for all groups.
(§5) Clinical signs, body weights, food consumption, ophthalmology, clinical pathology were evaluated. For each sex/group, a complete necropsy was conducted on 10 animals at the end of the dosing period and on 6 (only control and high dose groups) surviving animals at end of the recovery period.

[6] = system: CD1 mice; assay: as above; format: in vivo, mouse; conditions: 1000 mg/kg/day p.o., Day 9
Experimental: as §4, §5

[7] = system: healthy subjects; assay: First-in-human study, multiple ascending dose (MAD) part: safety and tolerability; format: in vivo; conditions: MAD cohorts
Text: A First-In-Human, Randomized, Placebo-Controlled, Double-Blind, SAD/MAD Study to Assess the Safety, Tolerability, Pharmacokinetics, and Pharmacodynamics of ACI-3024
The objective of the study is to assess the safety, tolerability, pharmacokinetics (PK), and pharmacodynamics (PD) of single ascending doses (SAD) and multiple ascending doses (MAD) of ACI-3024 in a first-in-human, randomized, placebo-controlled, double-blind, sequential SAD/MAD study with open-label food effect and pharmacodynamic assessment arms. The study comprises different parts to be conducted in Healthy Volunteers: • 1) one Single Ascending Dose (SAD) part in which several cohorts are being investigated with single ascending doses of ACI-3024. The food effect is also explored in this part. • 2) one Multiple Ascending Dose (MAD) part in which several cohorts are being investigated with multiple ascending doses of ACI-3024. Each study part is assessing the safety, tolerability, pharmacokinetics and pharmacodynamics of ACI-3024.
This part was conducted in elderly non-Japanese healthy subjects (MAD HV1 to MAD HV3 cohorts) and in non-elderly Japanese and non-Japanese healthy male subjects (MAD HV4 cohort).
The healthy subject part of Part III was a multiple dose, sequential group study. Overall, 30 healthy elderly male or female non Japanese subjects are being studied in 3 cohorts (Cohorts MAD HV1 to MAD-HV3), with each cohort consisting of 10 subjects. A cohort of 10 healthy non-elderly male Japanese and non-Japanese subjects were enrolled (MAD HV4) to collect safety, tolerability, PK, and PD biomarker data and to enable direct comparisons between non-elderly Japanese and non-Japanese subjects after multiple doses. The dose used in this cohort is based on previously conducted cohorts in non Japanese elderly healthy subjects to assess the effect of multiple doses in non-elderly male Japanese subjects compared to non-elderly non-Japanese male subjects. The MAD HV4 cohort was dosed in parallel with the MAD HV3 cohort. […]

SMILES: Fc1ccc2c3c([nH]c2c1)CCN(c1ccc2oc(N4CCOCC4)nc2c1)C3 [ACI-3024]
- minimum predose CSF level necessary for efficacy (target) [1]: 30 nM
- effect on Central Nervous System function [2]: no effect
- body weight gain [3]: minimal test item-related reduction
- NOAEL at 4 weeks [4]: 450 mg/kg
- NOAEL at 4 weeks [5]: 300 mg/kg/day
- mortality / premature euthanasia [6]: only one female animal was prematurely euthanized
- serious adverse events of liver injury possibly related to study drug ([7]; 14 days): 2
- AEs considered related or possibly related to study drug ([7]; 14 days, of 89 AEs): 33
- SAEs ([7]; dose below 1000 mg/day): did not show SAEs
